# Measured values taken from US10106556B2, “Heterocyclic compound” (TAKEDA PHARMACEUTICAL COMPANY LIMITED, priority 2015, dated 2018).
# Target: T1, His-hMAGL (recombinant polyhistidine tagged human MAGL protein) (Homo sapiens, UniProt Q99685)
# T1 construct: made in house; host or cells: E. coli BL21(DE3)
# T1 sequence (Q99685 1-303): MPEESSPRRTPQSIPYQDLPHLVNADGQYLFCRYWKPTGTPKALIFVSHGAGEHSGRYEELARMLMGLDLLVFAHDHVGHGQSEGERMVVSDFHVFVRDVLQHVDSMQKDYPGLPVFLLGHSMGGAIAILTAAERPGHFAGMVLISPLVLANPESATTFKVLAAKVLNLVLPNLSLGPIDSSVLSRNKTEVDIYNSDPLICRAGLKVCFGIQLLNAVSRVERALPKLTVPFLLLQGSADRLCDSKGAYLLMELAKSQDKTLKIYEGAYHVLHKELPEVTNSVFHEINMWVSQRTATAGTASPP
# Assay: Measurement of MAGL inhibitory activity (arachidonic acid production from 2-arachidonylglycerol, RapidFire-mass spectrometry)
# Format: biochemical
# Settings: MAGL inhibitory rate at 10 μM test compound; 60 min preincubation with His-hMAGL, 2-arachidonylglycerol substrate, 10 min reaction at room temperature
# Method in brief: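 Inhibition (%) was derived from arachidonic acid levels relative to enzyme-free and compound-free groups. Product was measured by online C4 solid-phase extraction and triple-quadrupole MS in negative SRM mode, corrected by arachidonic acid-d8 (3 μM in the acetonitrile added). Substrate was 2-arachidonylglycerol; enzyme was His-tagged recombinant human MAGL.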
row,inhibition at 10 µM [%],Compound
1,102,"O=C1COc2cc(F)c(C(=O)N3CC(COCc4ccc(Cl)cc4)C3)cc2N1 [Example 147, 6-((3-(((4-chlorobenzyl)oxy)methyl)azetidin-1-yl)carbonyl)-7-fluoro-2H-1,4-benzoxazin-3(4H)-one]"
2,100,"Cc1ccc(OCC2CN(C(=O)c3cc4c(cc3F)OCC(=O)N4)C2)cc1C [Example 163, 6-((3-((3,4-dimethylphenoxy)methyl)azetidin-1-yl)carbonyl)-7-fluoro-2H-1,4-benzoxazin-3(4H)-one]"
3,102,"O=C1COc2cc(F)c(C(=O)N3CC(COc4ccc(Cl)cc4-c4ccc5c(c4)CCO5)C3)cc2N1 [Example 221, 6-((3-((4-chloro-2-(2,3-dihydro-1-benzofuran-5-yl)phenoxy)methyl)azetidin-1-yl)carbonyl)-7-fluoro-2H-1,4-benzoxazin-3(4H)-one]"
4,99,"O=C1COc2ccc(C(=O)N3CCC(COc4ccc(Cl)c(F)c4)CC3)cc2N1 [Example 42, 6-((4-((4-chloro-3-fluorophenoxy)methyl)piperidin-1-yl)carbonyl)-2H-1,4-benzoxazin-3(4H)-one]"
5,91,"Cc1nccc(-c2ccccn2)c1OCC1CN(C(=O)c2cc3c(cc2F)OCC(=O)N3)C1 [Example 177, 7-fluoro-6-((3-(((2′-methyl-2,4′-bipyridin-3′-yl)oxy)methyl)azetidin-1-yl)carbonyl)-2H-1,4-benzoxazin-3(4H)-one]"
6,98,"Cc1ccccc1OCC1CCN(C(=O)c2ccc3c(c2)NC(=O)CO3)CC1 [Example 34, 6-((4-((2-methylphenoxy)methyl)piperidin-1-yl)carbonyl)-2H-1,4-benzoxazin-3(4H)-one]"
7,101,"O=C1COc2cc(F)c(C(=O)N3CC(COc4cnc5c(c4)CCCO5)C3)cc2N1 [Example 279, 6-((3-((3,4-dihydro-2H-pyrano[2,3-b]pyridin-6-yloxy)methyl)azetidin-1-yl)carbonyl)-7-fluoro-2H-1,4-benzoxazin-3(4H)-one]"
8,102,"N#Cc1cccc(OCC2CCN(C(=O)c3cc4c(cc3F)OCC(=O)N4)CC2)c1Cl [Example 75, 2-chloro-3-((1-((7-fluoro-3-oxo-3,4-dihydro-2H-1,4-benzoxazin-6-yl)carbonyl)piperidin-4-yl)methoxy)benzonitrile]"
9,96,"O=C1COc2ccc(C(=O)N3CCC(COc4ccccc4OC(F)(F)F)CC3)cc2N1 [Example 53, 6-((4-((2-(trifluoromethoxy)phenoxy)methyl)piperidin-1-yl)carbonyl)-2H-1,4-benzoxazin-3(4H)-one]"
10,102,"O=C1COc2cc(F)c(C(=O)N3CC(COc4ccc5c(c4)CCCC5)C3)cc2N1 [Example 102, 7-fluoro-6-((3-((5,6,7,8-tetrahydronaphthalen-2-yloxy)methyl)azetidin-1-yl)carbonyl)-2H-1,4-benzoxazin-3(4H)-one]"
11,99,"Cc1c(-c2cc(Cl)ccc2OCC2CN(C(=O)c3cc4c(cc3F)OCC(=O)N4)C2)cnn1C [Example 266, 6-((3-((4-chloro-2-(1,5-dimethyl-1H-pyrazol-4-yl)phenoxy)methyl)azetidin-1-yl)carbonyl)-7-fluoro-2H-1,4-benzoxazin-3(4H)-one]"
12,95,"Cc1cccc(-c2ccc(OCC3CN(C(=O)c4cc5c(cc4F)OCC(=O)N5)C3)c(F)c2)n1 [Example 230, 7-fluoro-6-((3-((2-fluoro-4-(6-methylpyridin-2-yl)phenoxy)methyl)azetidin-1-yl)carbonyl)-2H-1,4-benzoxazin-3(4H)-one]"
13,98,"COCC(Oc1ccc(Cl)cc1F)C1CN(C(=O)c2cc3c(cc2F)OCC(=O)N3)C1 (stereo not shown) [Example 309, 6-((3-(1-(4-chloro-2-fluorophenoxy)-2-methoxyethyl)azetidin-1-yl)carbonyl)-7-fluoro-2H-1,4-benzoxazin-3(4H)-one]"
14,102,"CC1(C)Cc2cccc(OCC3CN(C(=O)c4cc5c(cc4F)OCC(=O)N5)C3)c2O1 [Example 103, 6-((3-(((2,2-dimethyl-2,3-dihydro-1-benzofuran-7-yl)oxy)methyl)azetidin-1-yl)carbonyl)-7-fluoro-2H-1,4-benzoxazin-3(4H)-one]"
15,102,"O=C1COc2cc(Cl)c(C(=O)N3CC(COc4ccc(F)cc4Cl)C3)cc2N1 [Example 87, 7-chloro-6-((3-((2-chloro-4-fluorophenoxy)methyl)azetidin-1-yl)carbonyl)-2H-1,4-benzoxazin-3(4H)-one]"
16,99,"O=C1COc2cc(F)c(C(=O)N3CC(OCc4ccccc4)C3)cc2N1 [Example 327, 6-((3-(benzyloxy)azetidin-1-yl)carbonyl)-7-fluoro-2H-1,4-benzoxazin-3(4H)-one]"
17,101,"O=C1COc2ccc(C(=O)N3CCC(COc4ccc(F)cc4Cl)CC3)cc2N1 [Example 26, 6-((4-((2-chloro-4-fluorophenoxy)methyl)piperidin-1-yl)carbonyl)-2H-1,4-benzoxazin-3 (4H)-one]"
18,100,"Cc1nc2ccc(OCC3CN(C(=O)c4cc5c(cc4F)OCC(=O)N5)C3)cc2o1 [Example 153, 7-fluoro-6-((3-(((2-methyl-1,3-benzoxazol-6-yl)oxy)methyl)azetidin-1-yl)carbonyl)-2H-1,4-benzoxazin-3(4H)-one]"
19,99,"O=C1COc2cc(F)c(C(=O)N3CC(COc4ccc5nccn5c4-c4ccc(F)cc4)C3)cc2N1 [Example 181, 7-fluoro-6-((3-(((5-(4-fluorophenyl)imidazo[1,2-a]pyridin-6-yl)oxy)methyl)azetidin-1-yl)carbonyl)-2H-1,4-benzoxazin-3(4H)-one]"
20,99,"O=C1COc2cc(F)c(C(=O)N3CC(COc4ccc(-c5ccc6c(c5)CCO6)cc4F)C3)cc2N1 [Example 257, 6-((3-((4-(2,3-dihydro-1-benzofuran-5-yl)-2-fluorophenoxy)methyl)azetidin-1-yl)carbonyl)-7-fluoro-2H-1,4-benzoxazin-3(4H)-one]"
21,102,"Cc1ccc(OCC2CN(C(=O)c3cc4c(cc3F)OCC(=O)N4)C2)c(F)c1 [Example 164, 7-fluoro-6-((3-((2-fluoro-4-methylphenoxy)methyl)azetidin-1-yl)carbonyl)-2H-1,4-benzoxazin-3(4H)-one]"
22,102,"Cc1ccc(OCC2CN(C(=O)c3cc4c(cc3F)OCC(=O)N4)C2)cc1 [Example 161, 7-fluoro-6-((3-((4-methylphenoxy)methyl)azetidin-1-yl)carbonyl)-2H-1,4-benzoxazin-3(4H)-one]"
23,100,"O=C1COc2ccc(C(=O)N3CCC(COc4ccc(C(F)(F)F)cc4)CC3)cc2N1 [Example 58, 6-((4-((4-(trifluoromethyl)phenoxy)methyl)piperidin-1-yl)carbonyl)-2H-1,4-benzoxazin-3(4H)-one]"
24,100,"Cc1cncc(-c2cc(Cl)ccc2OCC2CN(C(=O)c3cc4c(cc3F)OCC(=O)N4)C2)c1 [Example 202, 6-((3-((4-chloro-2-(5-methylpyridin-3-yl)phenoxy)methyl)azetidin-1-yl)carbonyl)-7-fluoro-2H-1,4-benzoxazin-3(4H)-one]"

# Same assay, conditions: MAGL inhibitory rate at 10 μM test compound; 60 min preincubation with His-hMAGL, 2-arachidonylglycerol substrate, 10 min reaction at room temperature; 10 µM
row,% inhibition (10 μM) [%],Compound
1,101,"CC(Oc1cc(F)ccc1F)C1CN(C(=O)c2cc3c(cc2F)OCC(=O)N3)C1 (stereo not shown) [Example 319, 6-((3-(1-(2,5-difluorophenoxy)ethyl)azetidin-1-yl)carbonyl)-7-fluoro-2H-1,4-benzoxazin-3(4H)-one]"
